{"source": "patent US9180136B2", "about": "“Identification and treatment of cancer subsets” (The Translational Genomics Research Institute, priority 2010, dated 2015)", "key": {"SCC-4 cells": {"system": "SCC-4 cells", "assay": "TUNEL apoptosis staining of SCC-4 cells treated with IP6", "assay_type": "cell-based, human", "details": "SCC-4 cells treated with IP6 vs untreated, FIG. 8", "source_text": "FIG. 8 depicts increased apoptosis in a squamous cell carcinoma cell line treated with IP6 (right panel B) relative to the same line without treatment (left panel A), and the DNA blue fluorescence was produced by DAPI probe. Apoptotic nuclei red fluorescence was produced through TUNEL assay; IP6 is an inositol metabolite that is dependant upon INPP5A activity for its synthesis (See FIG. 7). Addition of exogenous IP6 inhibits the cell proliferation brought about by INPP5A loss and drives cells towards a differentiated phenotype. […] Increased TUNEL staining (red) is seen in the IP6 treated cells."}, "[1]": {"system": "colorectal adenocarcinoma (HT-29)", "assay": "CellTiter-Glo luminescent cell viability after IP6 treatment", "assay_type": "cell-based", "details": "HT-29, 0.31-5 mM IP6, 72 hours, FIG. 18", "experimental": "(§1) The human head and neck squamous cell carcinoma lines evaluated were: SCC-4, SCC-9 and SCC-15. The colorectal cancer cell line HT-29 and the kidney embryonic line HEK293, purchased from the American Type Culture Collection (ATCC, Manassas, Va.), were used for comparison. Squamous cell lines were maintained in Dulbecco's Modified Eagle Medium: Nutrient Mixture F12 (DMEM/F12), with 10% Fetal bovine serum (FBS), 2 mM GlutaMAX, 25 mM Hepes buffer, 100 U/ml penicillin and 100 μg/ml streptomycin. HEK293 and HT-29 were cultured in DMEM and RPMI-1640 medium respectively, with the supplements mentioned above. All media and cell culture supplements were purchased from Invitrogen Corporation (Carlsbad, Calif.). Sub-confluent, rapidly growing cells were plated at a density of 600 cells/20 μL/well in a clear bottom 384-well plate with opaque walls, suitable for luminescent measurements. The next day, IP6 (Inositol hexakisphosphate, phytic acid, dipotassium salt, Sigma-Aldrich, St Louis, Mo.) solutions in culture medium, corresponding to the following concentrations: 0.3125, 0.625, 1.25, 2.5 and 5 mM, were prepared, and were stored at 4° C. for 4-6 h. […] The plate was incubated at room temperature for 10 minutes, and the luminescence was read on a Perkin Elmer Victor^3 microplate reader. Data from each set of four replicates was averaged and the standard deviation was calculated. […]"}, "[2]": {"system": "transformed normal human embryonic kidney cell line (HEK-293)", "assay": "CellTiter-Glo luminescent cell viability after IP6 treatment", "assay_type": "cell-based", "details": "HEK-293, 0.31-5 mM IP6, 72 hours, FIG. 18", "experimental": "as §1"}, "SCC-9": {"system": "SCC-9", "assay": "CellTiter-Glo luminescent cell viability after IP6 treatment", "assay_type": "cell-based, human", "details": "SCC-9, 0.31-5 mM IP6, 72 hours, FIG. 18", "experimental": "(§2) The human head and neck squamous cell carcinoma lines evaluated were: SCC-4, SCC-9 and SCC-15. The colorectal cancer cell line HT-29 and the kidney embryonic line HEK293, purchased from the American Type Culture Collection (ATCC, Manassas, Va.), were used for comparison. Squamous cell lines were maintained in Dulbecco's Modified Eagle Medium: Nutrient Mixture F12 (DMEM/F12), with 10% Fetal bovine serum (FBS), 2 mM GlutaMAX, 25 mM Hepes buffer, 100 U/ml penicillin and 100 μg/ml streptomycin. HEK293 and HT-29 were cultured in DMEM and RPMI-1640 medium respectively, with the supplements mentioned above. All media and cell culture supplements were purchased from Invitrogen Corporation (Carlsbad, Calif.). Sub-confluent, rapidly growing cells were plated at a density of 600 cells/20 μL/well in a clear bottom 384-well plate with opaque walls, suitable for luminescent measurements. The next day, IP6 (Inositol hexakisphosphate, phytic acid, dipotassium salt, Sigma-Aldrich, St Louis, Mo.) solutions in culture medium, corresponding to the following concentrations: 0.3125, 0.625, 1.25, 2.5 and 5 mM, were prepared, and were stored at 4° C. for 4-6 h. Shortly before treatment, IP6 solutions were centrifuged to remove any precipitates that IP6 forms with calcium chloride. Four wells were treated for each condition. […] (San Luis Obispo, Calif.), following the manufacturer's instruction. Briefly, the assay buffer and substrate were equilibrated at room temperature, and mixed thoroughly. Without removing medium from wells, the assay reagent was added into each well (1:1, volume:volume of medium per well) and the content was mixed for 2 minutes on an orbital shaker to induce cell lysis. The plate was incubated at room temperature for 10 minutes, and the luminescence was read on a Perkin Elmer Victor^3 microplate reader. Data from each set of four replicates was averaged and the standard deviation was calculated. […]"}, "SCC-4": {"system": "SCC-4", "assay": "CellTiter-Glo luminescent cell viability after IP6 treatment", "assay_type": "cell-based, human", "details": "SCC-4, 0.31-5 mM IP6, 72 hours, FIG. 18", "experimental": "as §2"}, "SCC-15": {"system": "SCC-15", "assay": "CellTiter-Glo luminescent cell viability after IP6 treatment", "assay_type": "cell-based, human", "details": "SCC-15, 0.31-5 mM IP6, 72 hours, FIG. 18", "experimental": "as §2"}, "[3]": {"system": "normal human keratinocytes", "assay": "TUNEL apoptosis staining of normal human keratinocytes at different confluence treated with IP6", "assay_type": "cell-based", "details": "for apoptosis (TUNEL staining): 2 mM IP6 for 24 hours", "experimental": "FIG. 12 depicts the effect of IP6 treatment on confluent normal human keratinocytes. […] The DNA blue fluorescence was produced by DAPI probe. Apoptotic nuclei red fluorescence was produced through TUNEL assay; FIG. 13 depicts the effect of IP6 treatment on 70% confluent keratinocytes. […] The DNA blue fluorescence was produced by DAPI probe. […] Normal human keratinocytes were harvested at various stages of confluency. Cell cultures were assessed by morphological evaluation of the cell and segregated into distinct culture confluence intervals at or near the plateau phase of growth, generally: lower confluence (L), 70-80%; medium confluence (M), 80-90%, and higher confluence (H), >95%. INPP5A mRNA expression at selected culture confluence levels was evaluated by qPCR."}}, "note": "Counter-ions that a name gives are not always drawn."}
{"compound": "O=P(O)(O)O[C@H]1[C@H](OP(=O)(O)O)[C@@H](OP(=O)(O)O)[C@H](OP(=O)(O)O)[C@@H](OP(=O)(O)O)[C@H]1OP(=O)(O)O", "note": "[IP6, Inositol hexakisphosphate, phytic acid, dipotassium salt]", "values": [{"measurement": "cell death by apoptosis (TUNEL staining)", "setting": "SCC-4 cells", "result": "significant cell death by apoptosis"}, {"measurement": "proportion of cells present after treatment relative to untreated cells", "setting": "[1]", "result": "dose-dependent reduction in number"}, {"measurement": "proportion of cells present after treatment relative to untreated cells", "setting": "[2]", "result": "dose-dependent reduction in number"}, {"measurement": "proportion of cells present after treatment relative to untreated cells", "setting": "SCC-9", "result": "dose-dependent reduction in number, which is much greater for the SCC cells"}, {"measurement": "proportion of cells present after treatment relative to untreated cells", "setting": "SCC-4", "result": "dose-dependent reduction in number, which is much greater for the SCC cells"}, {"measurement": "proportion of cells present after treatment relative to untreated cells", "setting": "SCC-15", "result": "dose-dependent reduction in number, which is much greater for the SCC cells"}, {"measurement": "apoptosis (TUNEL staining)", "setting": "[3]; 70% confluent keratinocytes, FIG. 13", "result": "Greater apoptosis relative to background"}, {"measurement": "apoptosis (TUNEL staining)", "setting": "[3]; 100% confluent keratinocytes, FIG. 12", "result": "reduced apoptosis"}, {"measurement": "selectivity for cells with reduced INPP5A expression", "setting": "[3]; normal human keratinocytes at various stages of confluency", "result": "selective for cells with reduced INPP5A expression"}]}
